In ChEMBL document CHEMBL1926576, “Fragment based lead discovery of small molecule inhibitors for the EPHA4 receptor tyrosine kinase” (Eur J Med Chem, 2012):

Assays:
[1] = biological target: Dual specificity tyrosine-phosphorylation-regulated kinase 3 (Homo sapiens) (UniProt O43781); test: Inhibition of DYRK3 assessed as residual activity at 10 uM using [33P-ATP] by radiometric filter binding assay
[2] = biological target: Proto-oncogene tyrosine-protein kinase Src (Homo sapiens) (UniProt P12931); test: Inhibition of Src assessed as residual activity at 10 uM using [33P-ATP] by radiometric filter binding assay
[3] = biological target: Casein kinase I isoform alpha (Homo sapiens) (UniProt P48729); test: Inhibition of CK1 assessed as residual activity at 10 uM using [33P-ATP] by radiometric filter binding assay
[4] = biological target: Mitogen-activated protein kinase 13 (Homo sapiens) (UniProt O15264); test: Inhibition of p38delta MAPK assessed as residual activity at 10 uM using [33P-ATP] by radiometric filter binding assay
Sequence of Mitogen-activated protein kinase 13 (Homo sapiens) (O15264 whole entry): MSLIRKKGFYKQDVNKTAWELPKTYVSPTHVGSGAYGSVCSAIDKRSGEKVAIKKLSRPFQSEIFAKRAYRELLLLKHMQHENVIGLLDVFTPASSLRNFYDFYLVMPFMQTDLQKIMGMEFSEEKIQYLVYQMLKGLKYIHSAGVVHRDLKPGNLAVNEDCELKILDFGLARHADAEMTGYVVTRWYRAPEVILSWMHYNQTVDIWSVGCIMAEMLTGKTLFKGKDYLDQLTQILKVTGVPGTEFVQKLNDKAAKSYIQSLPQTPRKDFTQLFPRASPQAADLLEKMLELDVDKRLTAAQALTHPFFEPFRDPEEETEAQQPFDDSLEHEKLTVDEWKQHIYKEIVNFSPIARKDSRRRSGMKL

[5] = biological target: MAP/microtubule affinity-regulating kinase 4 (Homo sapiens) (UniProt Q96L34); test: Inhibition of MARK4 assessed as residual activity at 10 uM using [33P-ATP] by radiometric filter binding assay
Sequence of MAP/microtubule affinity-regulating kinase 4 (Homo sapiens) (Q96L34 whole entry): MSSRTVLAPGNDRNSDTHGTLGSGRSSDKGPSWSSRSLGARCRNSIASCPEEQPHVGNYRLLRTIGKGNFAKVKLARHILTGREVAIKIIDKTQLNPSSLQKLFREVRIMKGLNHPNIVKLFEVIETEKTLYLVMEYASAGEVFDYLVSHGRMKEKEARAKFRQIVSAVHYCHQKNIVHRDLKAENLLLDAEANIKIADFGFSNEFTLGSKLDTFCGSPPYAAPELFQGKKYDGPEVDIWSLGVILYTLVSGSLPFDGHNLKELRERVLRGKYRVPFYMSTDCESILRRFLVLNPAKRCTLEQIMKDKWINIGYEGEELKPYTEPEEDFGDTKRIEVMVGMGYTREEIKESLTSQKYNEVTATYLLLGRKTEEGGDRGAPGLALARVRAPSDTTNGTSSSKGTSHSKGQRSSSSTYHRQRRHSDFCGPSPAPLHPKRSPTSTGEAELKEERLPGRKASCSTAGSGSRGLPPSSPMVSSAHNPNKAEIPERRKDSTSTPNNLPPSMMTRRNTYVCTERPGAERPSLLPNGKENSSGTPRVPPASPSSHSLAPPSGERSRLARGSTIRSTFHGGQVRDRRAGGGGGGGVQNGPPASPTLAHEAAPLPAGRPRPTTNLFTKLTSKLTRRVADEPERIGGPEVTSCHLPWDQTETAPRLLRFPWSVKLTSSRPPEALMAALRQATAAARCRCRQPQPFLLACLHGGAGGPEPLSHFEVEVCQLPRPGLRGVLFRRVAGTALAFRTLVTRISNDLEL

[6] = biological target: Serine/threonine-protein kinase pim-2 (Homo sapiens) (UniProt Q9P1W9); test: Inhibition of PIM2 assessed as residual activity at 10 uM using [33P-ATP] by radiometric filter binding assay
Sequence of Serine/threonine-protein kinase pim-2 (Homo sapiens) (Q9P1W9 whole entry, looked up): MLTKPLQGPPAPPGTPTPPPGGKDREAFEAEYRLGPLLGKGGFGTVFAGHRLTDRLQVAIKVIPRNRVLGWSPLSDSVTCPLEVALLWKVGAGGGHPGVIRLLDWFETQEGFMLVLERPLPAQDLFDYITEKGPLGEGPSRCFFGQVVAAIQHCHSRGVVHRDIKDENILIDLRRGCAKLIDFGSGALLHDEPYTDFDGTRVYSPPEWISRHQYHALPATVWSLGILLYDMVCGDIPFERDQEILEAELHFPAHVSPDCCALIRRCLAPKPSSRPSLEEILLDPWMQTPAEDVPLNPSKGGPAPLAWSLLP

[7] = Inhibition of VEGFR assessed as residual activity at 10 uM using [33P-ATP] by radiometric filter binding assay
[8] = biological target: Homeodomain-interacting protein kinase 1 (Homo sapiens) (UniProt Q86Z02); test: Inhibition of HIPK1 assessed as residual activity at 10 uM using [33P-ATP] by radiometric filter binding assay
[9] = biological target: Ephrin type-B receptor 3 (Homo sapiens) (UniProt P54753); test: Inhibition of EPHB3 assessed as residual activity at 10 uM using [33P-ATP] by radiometric filter binding assay
[10] = biological target: Mitogen-activated protein kinase 12 (Homo sapiens) (UniProt P53778); test: Inhibition of p38-gamma MAPK assessed as residual activity at 10 uM using [33P-ATP] by radiometric filter binding assay
[11] = biological target: Ephrin type-A receptor 2 (Homo sapiens) (UniProt P29317); test: Inhibition of EPHA2 assessed as residual activity at 10 uM using [33P-ATP] by radiometric filter binding assay
[12] = biological target: Ribosomal protein S6 kinase beta-1 (Homo sapiens) (UniProt P23443); test: Inhibition of S6K1 assessed as residual activity at 10 uM using [33P-ATP] by radiometric filter binding assay
[13] = biological target: Fibroblast growth factor receptor 1 (Homo sapiens) (UniProt P11362); test: Inhibition of FGF-R1 assessed as residual activity at 10 uM using [33P-ATP] by radiometric filter binding assay
Sequence of Fibroblast growth factor receptor 1 (Homo sapiens) (P11362 22-822 limits assumed): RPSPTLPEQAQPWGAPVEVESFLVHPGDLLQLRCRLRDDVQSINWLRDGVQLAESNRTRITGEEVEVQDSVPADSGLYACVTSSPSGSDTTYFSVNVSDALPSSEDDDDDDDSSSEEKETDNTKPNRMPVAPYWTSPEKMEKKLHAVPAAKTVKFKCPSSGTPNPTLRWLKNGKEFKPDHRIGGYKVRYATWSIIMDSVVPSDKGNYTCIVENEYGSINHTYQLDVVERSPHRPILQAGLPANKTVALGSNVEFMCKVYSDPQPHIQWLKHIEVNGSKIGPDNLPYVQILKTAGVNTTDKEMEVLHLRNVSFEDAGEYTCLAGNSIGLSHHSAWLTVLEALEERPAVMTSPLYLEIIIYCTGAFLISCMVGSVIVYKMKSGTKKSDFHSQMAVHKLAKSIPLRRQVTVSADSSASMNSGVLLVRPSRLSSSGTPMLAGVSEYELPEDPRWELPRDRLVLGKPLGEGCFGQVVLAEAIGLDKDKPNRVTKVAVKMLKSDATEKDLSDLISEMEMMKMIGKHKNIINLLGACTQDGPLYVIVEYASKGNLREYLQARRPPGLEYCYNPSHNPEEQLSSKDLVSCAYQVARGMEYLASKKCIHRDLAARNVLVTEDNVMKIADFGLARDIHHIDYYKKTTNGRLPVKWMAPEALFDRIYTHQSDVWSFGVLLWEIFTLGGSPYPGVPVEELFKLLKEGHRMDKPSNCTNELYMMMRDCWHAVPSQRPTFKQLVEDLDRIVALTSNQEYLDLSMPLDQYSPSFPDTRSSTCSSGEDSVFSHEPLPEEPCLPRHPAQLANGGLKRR

[14] = biological target: RAC-alpha serine/threonine-protein kinase (Homo sapiens) (UniProt P31749); test: Inhibition of PKBalpha assessed as residual activity at 10 uM using [33P-ATP] by radiometric filter binding assay
[15] = biological target: Serine/threonine-protein kinase 33 (Homo sapiens) (UniProt Q9BYT3); test: Inhibition of STK33 assessed as residual activity at 10 uM using [33P-ATP] by radiometric filter binding assay
Sequence of Serine/threonine-protein kinase 33 (Homo sapiens) (Q9BYT3 whole entry, looked up): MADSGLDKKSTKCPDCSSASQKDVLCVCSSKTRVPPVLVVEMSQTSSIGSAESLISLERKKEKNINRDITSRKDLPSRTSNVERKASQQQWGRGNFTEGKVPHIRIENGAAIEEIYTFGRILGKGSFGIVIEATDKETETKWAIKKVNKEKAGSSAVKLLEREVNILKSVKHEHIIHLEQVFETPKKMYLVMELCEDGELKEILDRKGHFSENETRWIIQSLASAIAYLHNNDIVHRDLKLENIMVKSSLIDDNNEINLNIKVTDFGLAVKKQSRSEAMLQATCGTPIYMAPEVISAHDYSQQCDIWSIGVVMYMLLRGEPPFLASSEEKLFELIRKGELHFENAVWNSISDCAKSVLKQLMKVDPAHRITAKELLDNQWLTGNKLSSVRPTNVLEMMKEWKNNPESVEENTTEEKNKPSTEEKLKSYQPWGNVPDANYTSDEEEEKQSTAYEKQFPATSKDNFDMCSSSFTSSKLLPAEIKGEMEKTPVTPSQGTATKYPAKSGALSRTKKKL

[16] = biological target: Ribosomal protein S6 kinase alpha-3 (Homo sapiens) (UniProt P51812); test: Inhibition of RSK2 assessed as residual activity at 10 uM using [33P-ATP] by radiometric filter binding assay
Sequence of Ribosomal protein S6 kinase alpha-3 (Homo sapiens) (P51812 whole entry): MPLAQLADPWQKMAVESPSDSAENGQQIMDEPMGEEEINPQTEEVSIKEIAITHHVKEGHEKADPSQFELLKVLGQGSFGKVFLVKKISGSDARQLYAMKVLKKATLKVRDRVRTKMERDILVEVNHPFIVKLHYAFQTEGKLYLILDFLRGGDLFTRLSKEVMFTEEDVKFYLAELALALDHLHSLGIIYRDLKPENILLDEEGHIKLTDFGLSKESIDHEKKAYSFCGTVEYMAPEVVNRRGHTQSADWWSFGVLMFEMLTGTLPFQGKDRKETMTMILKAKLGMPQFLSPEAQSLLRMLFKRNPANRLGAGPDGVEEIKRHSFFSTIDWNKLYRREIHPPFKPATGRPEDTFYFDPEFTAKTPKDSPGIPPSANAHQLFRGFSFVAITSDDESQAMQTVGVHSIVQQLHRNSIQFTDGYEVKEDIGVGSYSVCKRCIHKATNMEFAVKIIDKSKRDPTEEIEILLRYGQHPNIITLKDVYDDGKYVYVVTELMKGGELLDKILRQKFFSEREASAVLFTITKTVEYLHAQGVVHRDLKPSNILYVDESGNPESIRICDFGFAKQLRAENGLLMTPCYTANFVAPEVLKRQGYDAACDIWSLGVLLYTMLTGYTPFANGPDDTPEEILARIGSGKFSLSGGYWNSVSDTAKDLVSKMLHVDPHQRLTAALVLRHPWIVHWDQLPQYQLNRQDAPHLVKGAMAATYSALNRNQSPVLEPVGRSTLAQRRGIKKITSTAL

[17] = biological target: Insulin-like growth factor 1 receptor (Homo sapiens) (UniProt P08069); test: Inhibition of IGF-1R assessed as residual activity at 10 uM using [33P-ATP] by radiometric filter binding assay
[18] = biological target: Serine/threonine-protein kinase Nek6 (Homo sapiens) (UniProt Q9HC98); test: Inhibition of NEK6 assessed as residual activity at 10 uM using [33P-ATP] by radiometric filter binding assay
Sequence of Serine/threonine-protein kinase Nek6 (Homo sapiens) (Q9HC98 whole entry): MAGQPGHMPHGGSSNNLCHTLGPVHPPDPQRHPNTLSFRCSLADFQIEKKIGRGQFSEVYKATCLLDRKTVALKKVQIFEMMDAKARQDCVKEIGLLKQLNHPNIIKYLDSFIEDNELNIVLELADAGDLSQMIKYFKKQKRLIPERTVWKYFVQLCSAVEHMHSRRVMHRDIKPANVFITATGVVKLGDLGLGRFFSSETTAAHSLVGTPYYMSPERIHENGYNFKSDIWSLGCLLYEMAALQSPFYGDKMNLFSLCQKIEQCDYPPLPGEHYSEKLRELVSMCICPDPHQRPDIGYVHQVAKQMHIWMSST

[19] = biological target: MAP kinase-activated protein kinase 3 (Homo sapiens) (UniProt Q16644); test: Inhibition of MAPKAP-K3 assessed as residual activity at 10 uM using [33P-ATP] by radiometric filter binding assay
[20] = biological target: RAC-beta serine/threonine-protein kinase (Homo sapiens) (UniProt P31751); test: Inhibition of PKBbeta assessed as residual activity at 10 uM using [33P-ATP] by radiometric filter binding assay
[21] = biological target: Calcium/calmodulin-dependent protein kinase kinase 2 (Homo sapiens) (UniProt Q96RR4); test: Inhibition of CAMKKbeta assessed as residual activity at 10 uM using [33P-ATP] by radiometric filter binding assay
[22] = biological target: Serine/threonine-protein kinase STK11 (Homo sapiens) (UniProt Q15831); test: Inhibition of LKB1 assessed as residual activity at 10 uM using [33P-ATP] by radiometric filter binding assay
[23] = biological target: MAP kinase-interacting serine/threonine-protein kinase 1 (Homo sapiens) (UniProt Q9BUB5); test: Inhibition of MNK1 assessed as residual activity at 10 uM using [33P-ATP] by radiometric filter binding assay
[24] = biological target: Inhibitor of nuclear factor kappa-B kinase subunit beta (Homo sapiens) (UniProt O14920); test: Inhibition of IKK-beta assessed as residual activity at 10 uM using [33P-ATP] by radiometric filter binding assay
[25] = biological target: Dual specificity protein kinase TTK (Homo sapiens) (UniProt P33981); test: Inhibition of TTK assessed as residual activity at 10 uM using [33P-ATP] by radiometric filter binding assay
[26] = biological target: Serine/threonine-protein kinase BRSK2 (Homo sapiens) (UniProt Q8IWQ3); test: Inhibition of BRSK2 assessed as residual activity at 10 uM using [33P-ATP] by radiometric filter binding assay
[27] = biological target: Serine/threonine-protein kinase MARK2 (Homo sapiens) (UniProt Q7KZI7); test: Inhibition of MARK2 assessed as residual activity at 10 uM using [33P-ATP] by radiometric filter binding assay
[28] = biological target: Serine/threonine-protein kinase TBK1 (Homo sapiens) (UniProt Q9UHD2); test: Inhibition of TBK1 assessed as residual activity at 10 uM using [33P-ATP] by radiometric filter binding assay
[29] = biological target: Tyrosine-protein kinase SYK (Homo sapiens) (UniProt P43405); test: Inhibition of SYK assessed as residual activity at 10 uM using [33P-ATP] by radiometric filter binding assay
[30] = biological target: Serine/threonine-protein kinase D1 (Homo sapiens) (UniProt Q15139); test: Inhibition of PKD1 assessed as residual activity at 10 uM using [33P-ATP] by radiometric filter binding assay
[31] = biological target: Tyrosine-protein kinase BTK (Homo sapiens) (UniProt Q06187); test: Inhibition of BTK assessed as residual activity at 10 uM using [33P-ATP] by radiometric filter binding assay
[32] = biological target: Serine/threonine-protein kinase Chk2 (Homo sapiens) (UniProt O96017); test: Inhibition of CHK2 assessed as residual activity at 10 uM using [33P-ATP] by radiometric filter binding assay
Sequence of Serine/threonine-protein kinase Chk2 (Homo sapiens) (O96017 whole entry): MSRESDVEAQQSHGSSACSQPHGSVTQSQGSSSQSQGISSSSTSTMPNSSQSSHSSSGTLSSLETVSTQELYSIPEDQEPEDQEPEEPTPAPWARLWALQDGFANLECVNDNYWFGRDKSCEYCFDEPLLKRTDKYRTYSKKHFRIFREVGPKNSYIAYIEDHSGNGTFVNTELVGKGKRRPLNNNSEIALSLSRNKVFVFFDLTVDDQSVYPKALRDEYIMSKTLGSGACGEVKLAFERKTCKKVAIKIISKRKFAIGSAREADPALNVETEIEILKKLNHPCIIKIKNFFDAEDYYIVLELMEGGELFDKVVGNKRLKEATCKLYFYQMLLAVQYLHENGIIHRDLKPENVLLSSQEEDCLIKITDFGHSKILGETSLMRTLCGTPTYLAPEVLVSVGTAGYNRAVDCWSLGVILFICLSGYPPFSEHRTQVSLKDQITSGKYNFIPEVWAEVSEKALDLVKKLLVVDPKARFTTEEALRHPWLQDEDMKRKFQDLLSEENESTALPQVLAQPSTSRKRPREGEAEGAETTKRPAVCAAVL

[33] = biological target: Insulin receptor (Homo sapiens) (UniProt P06213); test: Inhibition of IR assessed as residual activity at 10 uM using [33P-ATP] by radiometric filter binding assay

Sequence of Dual specificity tyrosine-phosphorylation-regulated kinase 3 (Homo sapiens) (O43781 whole entry): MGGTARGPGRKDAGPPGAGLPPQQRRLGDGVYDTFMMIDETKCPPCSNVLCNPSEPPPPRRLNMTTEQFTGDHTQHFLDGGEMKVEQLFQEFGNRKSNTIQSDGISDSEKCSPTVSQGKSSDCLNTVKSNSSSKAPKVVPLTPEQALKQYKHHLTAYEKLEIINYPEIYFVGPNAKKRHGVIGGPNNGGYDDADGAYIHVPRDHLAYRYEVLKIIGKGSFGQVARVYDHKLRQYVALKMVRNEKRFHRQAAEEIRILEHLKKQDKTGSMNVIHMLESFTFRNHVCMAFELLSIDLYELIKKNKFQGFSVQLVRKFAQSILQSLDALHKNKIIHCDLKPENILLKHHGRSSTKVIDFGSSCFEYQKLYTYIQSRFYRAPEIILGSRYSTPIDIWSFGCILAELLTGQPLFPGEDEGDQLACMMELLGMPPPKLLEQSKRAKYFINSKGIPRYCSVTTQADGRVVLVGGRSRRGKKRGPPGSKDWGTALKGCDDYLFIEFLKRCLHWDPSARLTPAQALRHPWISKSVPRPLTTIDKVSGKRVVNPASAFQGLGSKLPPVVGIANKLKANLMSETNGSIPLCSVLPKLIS

- Activity [1]: 95%
- Activity [2]: 25%
- Activity [3]: 96%
- Activity [4]: 100%
- Activity [5]: 74%
- Activity [6]: 100%
- Activity [7]: 76%
- Activity [8]: 124%
- Activity [9]: 7%
- Activity [10]: 91%
- Activity [11]: 29%
- Activity [12]: 103%
- Activity [13]: 55%
- Activity [14]: 79%
- Activity [15]: 97%
- Activity [16]: 82%
- Activity [17]: 71%
- Activity [18]: 86%
- Activity [19]: 84%
- Activity [20]: 77%
- Activity [21]: 89%
- Activity [22]: 52%
- Activity [23]: 78%
- Activity [24]: 51%
- Activity [25]: 81%
- Activity [26]: 73%
- Activity [27]: 78%
- Activity [28]: 107%
- Activity [29]: 76%
- Activity [30]: 63%
- Activity [31]: 30%
- Activity [32]: 113%
- Activity [33]: 83%
Compound: Cc1ccc(F)cc1-c1nc2[nH]nc(N)c2c2c1CCCC2
